Measured values reported in ChEMBL document CHEMBL5465560, “Selectivity Literature for EUbOPEN Chemogenomic Library” (2024).
pIC50: −log10 of the molar value. Blank lines part the entries; values can stand above or below the molecule they belong to.

Assays:
[1] = target: Dual specificity tyrosine-phosphorylation-regulated kinase 1A (Homo sapiens, UniProt Q13627); experiment: Selectivity interaction (KinomeScan (DiscoverX)) EUB0000666a DYRK1A; settings: at 10 µM
[2] = target: T1, Serine/threonine-protein kinase D2 (Homo sapiens) (UniProt Q9BZL6); experiment: Selectivity interaction (Upstate Kinase Profiler service (Millipore)) EUB0000056c PRKD2; settings: at 1 µM
T1 sequence (whole entry): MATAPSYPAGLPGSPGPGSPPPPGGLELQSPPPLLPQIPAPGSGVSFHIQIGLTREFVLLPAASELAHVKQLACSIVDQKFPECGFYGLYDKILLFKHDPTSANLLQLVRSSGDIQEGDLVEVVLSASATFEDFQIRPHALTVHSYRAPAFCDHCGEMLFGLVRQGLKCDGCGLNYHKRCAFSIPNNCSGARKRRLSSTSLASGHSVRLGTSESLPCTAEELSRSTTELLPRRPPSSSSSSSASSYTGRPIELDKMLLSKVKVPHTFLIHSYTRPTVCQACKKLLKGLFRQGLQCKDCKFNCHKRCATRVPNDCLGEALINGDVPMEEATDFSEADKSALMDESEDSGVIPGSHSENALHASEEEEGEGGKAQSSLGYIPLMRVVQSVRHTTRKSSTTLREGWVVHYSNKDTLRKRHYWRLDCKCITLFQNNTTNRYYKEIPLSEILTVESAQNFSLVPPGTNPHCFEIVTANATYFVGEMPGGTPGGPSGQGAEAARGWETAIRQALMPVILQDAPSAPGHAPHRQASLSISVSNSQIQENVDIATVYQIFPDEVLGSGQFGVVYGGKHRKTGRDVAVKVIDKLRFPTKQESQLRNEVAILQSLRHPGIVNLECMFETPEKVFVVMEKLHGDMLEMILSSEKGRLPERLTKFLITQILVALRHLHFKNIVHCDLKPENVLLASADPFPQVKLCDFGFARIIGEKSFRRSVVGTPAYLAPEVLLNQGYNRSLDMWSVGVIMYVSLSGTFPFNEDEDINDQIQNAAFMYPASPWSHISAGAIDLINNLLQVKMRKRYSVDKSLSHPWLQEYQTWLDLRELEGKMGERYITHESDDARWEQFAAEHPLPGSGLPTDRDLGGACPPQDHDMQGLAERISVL

[3] = target: T2, Discoidin domain-containing receptor 2 (Homo sapiens) (UniProt Q16832); settings: at 10 µM
T2 sequence (whole entry): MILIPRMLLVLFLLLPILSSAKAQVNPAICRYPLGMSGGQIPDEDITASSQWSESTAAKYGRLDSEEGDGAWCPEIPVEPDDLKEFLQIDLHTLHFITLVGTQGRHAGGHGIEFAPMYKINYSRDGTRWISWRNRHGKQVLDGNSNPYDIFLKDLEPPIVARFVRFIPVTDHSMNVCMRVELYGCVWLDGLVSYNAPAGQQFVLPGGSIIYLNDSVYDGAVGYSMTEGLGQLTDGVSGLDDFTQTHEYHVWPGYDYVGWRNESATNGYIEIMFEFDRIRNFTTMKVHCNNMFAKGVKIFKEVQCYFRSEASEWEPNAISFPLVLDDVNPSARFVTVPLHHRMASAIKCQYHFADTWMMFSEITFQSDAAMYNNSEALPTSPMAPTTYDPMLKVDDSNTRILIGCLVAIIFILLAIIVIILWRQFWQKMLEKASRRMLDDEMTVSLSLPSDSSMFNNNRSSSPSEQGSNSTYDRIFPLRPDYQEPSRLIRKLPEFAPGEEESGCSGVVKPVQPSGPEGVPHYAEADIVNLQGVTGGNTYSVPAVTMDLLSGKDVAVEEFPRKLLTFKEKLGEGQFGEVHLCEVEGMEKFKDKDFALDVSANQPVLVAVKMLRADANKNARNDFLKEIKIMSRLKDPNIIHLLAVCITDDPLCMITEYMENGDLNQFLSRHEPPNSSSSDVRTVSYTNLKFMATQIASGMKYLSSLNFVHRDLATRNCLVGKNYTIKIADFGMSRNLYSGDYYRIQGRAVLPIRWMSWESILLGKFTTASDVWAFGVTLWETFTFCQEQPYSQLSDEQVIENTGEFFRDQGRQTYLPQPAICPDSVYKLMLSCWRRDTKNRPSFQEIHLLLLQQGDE

[4] = target: Cyclin-dependent kinase 2/cyclin E (Homo sapiens, UniProt P24941); experiment: Selectivity interaction (Enzyme panel (AstraZeneca, AlphaScreen, functional assay)) EUB0000621a CDK2; assay type: protein-complex assay
[5] = target: T3, Serine/threonine-protein kinase TAO1 (Homo sapiens) (UniProt Q7L7X3); experiment: Selectivity interaction (KinomeScan (DiscoverX)) EUB0001619a TAOK1; settings: at 1 µM
T3 sequence (whole entry): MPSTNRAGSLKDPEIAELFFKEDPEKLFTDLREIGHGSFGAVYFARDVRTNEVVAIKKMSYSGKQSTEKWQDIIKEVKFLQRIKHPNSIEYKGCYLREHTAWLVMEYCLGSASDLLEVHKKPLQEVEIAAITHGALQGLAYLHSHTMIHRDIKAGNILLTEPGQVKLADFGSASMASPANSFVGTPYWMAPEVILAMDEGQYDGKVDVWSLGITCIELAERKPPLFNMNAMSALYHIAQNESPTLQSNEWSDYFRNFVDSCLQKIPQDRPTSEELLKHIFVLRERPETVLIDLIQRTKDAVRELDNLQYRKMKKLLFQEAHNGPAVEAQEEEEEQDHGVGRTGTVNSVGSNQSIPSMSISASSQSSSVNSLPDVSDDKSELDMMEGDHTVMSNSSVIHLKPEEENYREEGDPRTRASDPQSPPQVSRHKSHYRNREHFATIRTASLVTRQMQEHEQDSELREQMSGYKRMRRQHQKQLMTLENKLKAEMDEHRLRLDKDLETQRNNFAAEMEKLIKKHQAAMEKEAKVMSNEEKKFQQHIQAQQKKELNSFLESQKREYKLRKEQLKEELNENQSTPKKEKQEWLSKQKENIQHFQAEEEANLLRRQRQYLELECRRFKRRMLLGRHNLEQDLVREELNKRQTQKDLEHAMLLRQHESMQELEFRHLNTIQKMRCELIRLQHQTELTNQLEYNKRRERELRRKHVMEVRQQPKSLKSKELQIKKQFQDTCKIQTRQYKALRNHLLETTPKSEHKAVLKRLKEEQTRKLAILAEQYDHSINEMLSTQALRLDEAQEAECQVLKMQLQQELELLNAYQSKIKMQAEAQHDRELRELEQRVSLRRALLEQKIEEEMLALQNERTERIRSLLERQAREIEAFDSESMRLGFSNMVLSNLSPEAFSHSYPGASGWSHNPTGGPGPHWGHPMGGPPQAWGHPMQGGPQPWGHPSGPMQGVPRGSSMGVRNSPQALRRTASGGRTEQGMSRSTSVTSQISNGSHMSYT

Structure (SMILES): O=C(NOC[C@H](O)CO)c1ccc(F)c(F)c1Nc1ccc(I)cc1F
- % of control [1]: 100%

- % of inhibition [2]: -9%
Structure (SMILES): Cc1ccc(-c2ccc3c(ccc4sc5c(c43)NC[C@@H](C)NC5=O)n2)cn1

- % of control [3]: 100%
Structure (SMILES): CCN(CC)CCCCNc1ncc2cc(-c3cc(OC)cc(OC)c3)c(NC(=O)NC(C)(C)C)nc2n1

Structure (SMILES): Cc1cc([C@@H](C)Nc2ccccc2C(=O)O)c2nc(N3CCOCC3)cc(=O)n2c1 [AZD-6482]
- pIC50 [4]: < 3.00

Structure (SMILES): N#Cc1cccc(-c2c[nH]c3ncnc(N4CCOCC4)c23)c1
- % of control [5]: 6.4%
